Measurements taken from patent US20050067347A1, “Sustainable process for the treatment and detoxification of liquid waste” (priority 2001, published 2005).

Test system: Pycnoporus sanguineus MUCL 41582
Experiment: Laccase activity of fungal culture with inductors
Format: cell-based
Conditions: for Enzymatic activity: laccase activity, inductor added after 2 days of pre-culture, measured after 5 days of incubation
Experimental: In an example, the inductors NY3, NY5 and RBBR were added to a fungal culture of Pycnoporus sanguineus MUCL 41582 after 2 days of pre-culture. Laccase activity was measured after 5 days of incubation of the culture with the inductors. Results are indicated in the below-given Table 2 and show clearly that laccase activity is enhanced when the fungus is cultured in the presence of inductors.

Structure (SMILES)	Enzymatic activity [nmol/mL]	increase of laccase activity (versus culture without inductor)
Nc1c(S(=O)(=O)O)cc(NC2CCCCC2)c2c1C(=O)c1ccccc1C2=O [NY3]	3.87	
Cc1ccc(OS(=O)(=O)Oc2ccc(Nc3cc(S(=O)(=O)O)c(N)c4c3C(=O)c3ccccc3C4=O)cc2)cc1 [NY5]	11.60	more than 20 fold
Nc1c(S(=O)(=O)[O-])cc(Nc2cccc(S(=O)(=O)CCOS(=O)(=O)[O-])c2)c2c1C(=O)c1ccccc1C2=O.[Na+].[Na+] [RBBR]	5.40	
